Measurements: patent US10889627B2, “Pro-drug peptide with improved pharmaceutical properties” (UREKA SARL, priority 2017, dated 2021)
Read-outs that look alike come from different tables or passages of the source.

Assays:
[1] = Solubility assay (Example 2, percent soluble by UV absorbance); conditions: PBS buffer (0.1M) at pH 7.4
Description: (§1) A solution of the compound (e.g., glucagon or analogues thereof) was prepared in a 0.01M HCl solution. Then 0.1 mL of the stock solution was diluted to 1 mL with HCl (0.01M) and the UV absorbance was measured (to 280 nm) with NanoDrop UV spectrometer (NanoDrop 1000 from Thermo Fischer Company). The pH of the remaining stock solution was adjusted to pH 7 using Na2HPO4 (0.1M) and the solution was allowed to stand overnight at 4° C. Then the solution was centrifuged three times (5 min, 4000 min^−1), 0.1 mL of the supernatant was removed and diluted to 1 mL with HCl solution (0.01M). The final UV absorbance was measured. The solubility was accessible by the following formula: (Final Absorbance/Initial Absorbance)×100=Percent Soluble

[2] = pH 7.4
Description: as §1

[3] = Stability assay in NaCl 0.9% aqueous solution (RP-HPLC); assay type: physicochemical; conditions: 1 mg/mL
Description: A solution of 1 mg/mL of peptide or peptidomimetic (glucagon or analog thereof) was prepared in a NaCl 0.9% aqueous solution and stored at room temperature, or 4° C., or 37° C. and or 50° C. The samples were analyzed by RP-HPLC on a Dionex U3000SD using a Macherey-Nagel Nucleodur C18ec column (4×100 mm, 3 μm) at a flow rate of 1 mL/min with UV detection at 200 nm. The mobile phase was composed of 0.1% (v/v) TFA-H2O (Solvent A) and 0.1% (v/v) TFA-CH3CN (Solvent B).

[4] = tested on: Wistar Rat; test: Rat studies, blood glucose after i.v. dosing (Example 2); assay type: in vivo; conditions: Wistar rats, 3 hours fasting, 10 nM/kg i.v., FIGS. 12 and 13
Excerpt: The rats (Wistar Rat, males, 8-week old, n=6 or 3) were housed in ventilated and enriched housing cages (310×125×127 mm^3) throughout the experimental phase. […] The rates were acclimated for 5 days with standard diet and tap water.

Solubility at 1 mg/mL [1] [%] | Solubility at 1 mg/mL [2] [%] | Percentage of peptide remaining ([3]; 4° C., 1 month (T0 = 100%)) [%] | Percentage of peptide remaining ([3]; 4° C., 1 week (T0 = 100%)) [%] | Percentage of peptide remaining ([3]; 4° C., 5 months (T0 = 100%)) [%] | Percentage of peptide remaining ([3]; RT, 1 month (T0 = 100%)) [%] | Percentage of peptide remaining ([3]; RT, 1 week (T0 = 100%)) [%] | Percentage of peptide remaining ([3]; RT, 5 months (T0 = 100%)) [%] | Substance | Glycogen breakdown (increased blood glucose levels) compared to glucagon [4]
34 |  |  |  |  |  |  |  | K*PHSQGTFTSDYSKYLDSRRAQDFVQWLLNT-NH2 [Peptide 22] | 
 | 18 |  |  |  |  |  |  | EPHSQGTFTSDYSKYLDSRRAQDFVQWLLNT-NH2 [Peptide 18] | 
77 |  | 99 | 99 | 97 | 97 | 99 | 87 | KPKPKPHSQGTFTSDYSKYLDSRRAQDFVQWLLNT-NH2 [Peptide 14] | greater glycogen breakdown
